Measured values published in patent US8513239B2, “Chiral cis-imidazolines” (Hoffmann-La Roche Inc., priority 2007, dated 2013).

Molecular target: interaction between p53 and MDM2 proteins (Homo sapiens, UniProt Q00987)
Assay: HTRF assay of inhibition of p53-MDM2 interaction (GST-MDM2 binding to biotinylated p53 peptide)
Details: recombinant GST-tagged MDM2, biotinylated p53 peptide, 0.2% BSA
Description: The ability of the compounds to inhibit the interaction between p53 and MDM2 proteins was measured by an HTRF (homogeneous time-resolved fluorescence) assay in which recombinant GST-tagged MDM2 binds to a peptide that resembles the MDM2-interacting region of p53 (Lane et al.). Binding of GST-MDM2 protein and p53-peptide (biotinylated on its N-terminal end) is registered by the FRET (fluorescence resonance energy transfer) between Europium (Eu)-labeled anti-GST antibody and streptavidin-conjugated Allophycocyanin (APC).
Test is performed in black flat-bottom 384-well plates (Costar) in a total volume of […] containing:90 nM biotinylate peptide, 160 ng/ml GST-MDM2, 20 nM streptavidin-APC (PerkinElmerWallac), 2 nM Eu-labeled anti-GST-antibody (PerkinElmerWallac), 0.2% bovine serum albumin (BSA), 1 mM dithiothreitol (DTT) and 20 mM […] (TBS) buffer as follows: Add 10 uL of GST-MDM2 (640 ng/ml working solution) in reaction buffer to each well. Add 10 uL diluted compounds (1:5 dilution in reaction buffer) to each well, mix by shaking. Add 20 uL biotinylated p53 peptide (180 nM working solution) in reaction buffer to each well and mix on shaker. Incubate at 37° C. for 1 h. Add 20 uL streptavidin-APC and Eu-anti-GST antibody mixture (6 nM Eu-anti-GST and 60 nM streptavidin-APC working solution) in TBS buffer with 0.2% BSA, shake at room temperature for 30 minutes and read using a TRF-capable plate reader at 665 and 615 nm (Victor 5, Perkin ElmerWallac). If not specified, the reagents were purchased from Sigma Chemical Co.

interaction between p53 and MDM2 proteins, sequence (Q00987 whole entry): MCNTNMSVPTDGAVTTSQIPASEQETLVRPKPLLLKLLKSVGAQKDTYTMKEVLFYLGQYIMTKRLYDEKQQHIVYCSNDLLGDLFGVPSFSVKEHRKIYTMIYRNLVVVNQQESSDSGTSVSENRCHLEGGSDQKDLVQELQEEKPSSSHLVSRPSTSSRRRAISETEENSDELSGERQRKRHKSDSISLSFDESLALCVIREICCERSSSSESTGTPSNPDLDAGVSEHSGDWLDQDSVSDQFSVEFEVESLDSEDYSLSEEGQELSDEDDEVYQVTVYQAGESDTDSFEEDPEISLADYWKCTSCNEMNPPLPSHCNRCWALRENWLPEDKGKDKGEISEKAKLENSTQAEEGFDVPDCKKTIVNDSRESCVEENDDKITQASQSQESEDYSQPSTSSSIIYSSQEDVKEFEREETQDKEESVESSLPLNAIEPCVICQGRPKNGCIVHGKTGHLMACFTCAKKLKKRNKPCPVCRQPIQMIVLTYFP

SMILES | IC50 [nM]
CCOc1nc(C(C)(C)C)ccc1C1=N[C@@](C)(c2ccc(Cl)cc2)[C@@](C)(c2ccc(Cl)cc2)N1C(=O)N1CCN(CCCS(C)(=O)=O)CC1 (racemic) [Example 9, Rac-[(4S*,5R*)-2-(6-tert-Butyl-2-ethoxy-pyridin-3-yl)-4,5-bis-(4-chloro-phenyl)-4,5-dimethyl-4,5-dihydro-imidazol-1-yl]-[4-(3-methanesulfonyl-propyl)-piperazin-1-yl]-methanone] | 178
CCOc1nc(C(C)(C)C)ncc1C1=N[C@@](C)(c2ccc(Cl)cc2)[C@@](C)(c2ccc(Cl)cc2)N1C(=O)N1CCC(N2CCCC2)CC1 (racemic) [Example 29, [2-(2-tert-Butyl-4-ethoxy-pyrimidin-5-yl)-4,5-bis-(4-chloro-phenyl)-4,5-dimethyl-4,5-dihydro-imidazol-1-yl]-(4-pyrrolidin-1-yl-piperidin-1-yl)-methanone] | 252
CCOc1nc(C(C)(C)C)ncc1C1=N[C@@](C)(c2ccc(Cl)cc2)[C@@](C)(c2ccc(Cl)cc2)N1C(=O)N1CCN(C2CCS(=O)(=O)CC2)CC1 [Example 4, [(4S,5R)-2-(2-tert-Butyl-4-ethoxy-pyrimidin-5-yl)-4,5-bis-(4-chloro-phenyl)-4,5-dimethyl-4,5-dihydro-imidazol-1-yl]-[4-(1,1-dioxo-hexahydro-thiopyran-4-yl)-piperazin-1-yl]-methanone] | 46

Further lines, results first:

IC50 [nM] | SMILES
77 | CCOc1nc(C(C)(C)C)ncc1C1=N[C@@](C)(c2ccc(Cl)cc2)[C@@](C)(c2ccc(Cl)cc2)N1C(=O)N1CCN(CC(=O)N2CCOCC2)CC1 (racemic) [Example 40, Rac-2-{4-[(4S*,5R*)-2-(2-tert-Butyl-4-ethoxy-pyrimidin-5-yl)-4,5-bis-(4-chloro-phenyl)-4,5-dimethyl-4,5-dihydro-imidazole-1-carbonyl]-piperazin-1-yl}-1-morpholin-4-yl-ethanone]
31 | CCOc1nc(C(C)(C)C)ncc1C1=N[C@@](C)(c2ccc(Cl)cc2)[C@@](C)(c2ccc(Cl)cc2)N1C(=O)N1CCN(CCOCCO)CC1 [Example 22, [(4S,5R)-2-(2-tert-Butyl-4-ethoxy-pyrimidin-5-yl)-4,5-bis-(4-chloro-phenyl)-4,5-dimethyl-4,5-dihydro-imidazol-1-yl]-{4-[2-(2-hydroxy-ethoxy)-ethyl]-piperazin-1-yl}-methanone]
